Key:
Assay in all cases: radiometric filter-binding kinase assay
HIPK3 (human) = HIPK3 (human) (UniProt Q9H422)
EPHA4 (human) = EPHA4 (human) (UniProt P54764)
PLK1 (human) = PLK1 (human) (UniProt P53350)
CHEK1 (human) = CHEK1 (human) (UniProt O14757)
NEK6 (human) = NEK6 (human) (UniProt Q9HC98)
MAPK12 (human) = MAPK12 (human) (UniProt P53778)
MARK2 (human) = MARK2 (human) (UniProt Q7KZI7)
MST4 (human) = MST4 (human) (UniProt Q9P289)
CLK2 (human) = CLK2 (human) (UniProt P49760)
RPS6KA3 KD1 KD2 (human) = RPS6KA3 KD1 KD2 (human) (UniProt P51812)
PAK6 (human) = PAK6 (human) (UniProt Q9NQU5)
[1] = tested on: SGK1 (human), O00141 [S422D]
PAK7 (human) = PAK7 (human) (UniProt Q9P286)
Chain of PAK7 (human) (Q9P286 whole entry, looked up): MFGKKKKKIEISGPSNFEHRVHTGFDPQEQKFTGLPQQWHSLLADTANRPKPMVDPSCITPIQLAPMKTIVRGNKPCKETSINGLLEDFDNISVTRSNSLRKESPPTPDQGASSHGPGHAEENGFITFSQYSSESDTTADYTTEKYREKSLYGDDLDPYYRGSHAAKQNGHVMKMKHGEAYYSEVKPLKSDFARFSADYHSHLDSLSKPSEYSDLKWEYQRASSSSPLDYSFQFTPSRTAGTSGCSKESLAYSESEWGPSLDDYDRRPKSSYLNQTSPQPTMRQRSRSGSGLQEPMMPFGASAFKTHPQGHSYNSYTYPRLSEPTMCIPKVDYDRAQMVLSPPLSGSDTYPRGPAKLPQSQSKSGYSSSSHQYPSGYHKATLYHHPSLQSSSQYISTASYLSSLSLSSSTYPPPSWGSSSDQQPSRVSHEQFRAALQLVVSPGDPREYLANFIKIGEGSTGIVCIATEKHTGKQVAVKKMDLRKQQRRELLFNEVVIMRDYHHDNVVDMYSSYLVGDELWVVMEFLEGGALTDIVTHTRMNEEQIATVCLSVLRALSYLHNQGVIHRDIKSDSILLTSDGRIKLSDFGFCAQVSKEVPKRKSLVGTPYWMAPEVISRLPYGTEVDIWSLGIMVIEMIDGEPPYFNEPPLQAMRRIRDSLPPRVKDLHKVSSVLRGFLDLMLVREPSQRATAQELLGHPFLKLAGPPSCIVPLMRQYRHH

MAPK3 (human) = MAPK3 (human) (UniProt P27361)
CSNK1D (human) = CSNK1D (human) (UniProt P48730)
MAP3K7 TAB1 (human) = MAP3K7 TAB1 (human) (UniProt Q15750+O43318)
MAPK15 (human) = MAPK15 (human) (UniProt Q8TD08)
IRAK4 (human) = IRAK4 (human) (UniProt Q9NWZ3)
CAMKK2 (human) = CAMKK2 (human) (UniProt Q96RR4)
[2] = tested on: PAK2 (human), Q13177 [T402E]
Chain of PAK2 (human), Q13177 [T402E] (Q13177 whole entry T402E, looked up): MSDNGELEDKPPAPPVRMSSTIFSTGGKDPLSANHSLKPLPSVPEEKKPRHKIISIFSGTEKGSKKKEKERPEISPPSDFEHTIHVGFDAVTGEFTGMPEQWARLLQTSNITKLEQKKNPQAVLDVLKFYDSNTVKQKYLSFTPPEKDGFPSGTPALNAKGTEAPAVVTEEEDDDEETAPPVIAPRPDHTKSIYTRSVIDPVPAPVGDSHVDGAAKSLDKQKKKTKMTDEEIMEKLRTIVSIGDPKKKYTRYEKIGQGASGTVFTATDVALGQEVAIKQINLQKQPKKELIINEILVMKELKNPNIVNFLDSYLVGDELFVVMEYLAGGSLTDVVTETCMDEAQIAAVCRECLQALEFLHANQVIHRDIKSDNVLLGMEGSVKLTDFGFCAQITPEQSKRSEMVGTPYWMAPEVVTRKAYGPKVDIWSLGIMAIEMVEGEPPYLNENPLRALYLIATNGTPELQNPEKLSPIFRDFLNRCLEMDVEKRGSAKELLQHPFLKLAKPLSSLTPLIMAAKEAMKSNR

RPS6KA5 KD1 KD2 (human) = RPS6KA5 KD1 KD2 (human) (UniProt O75582)
MARK1 (human) = MARK1 (human) (UniProt Q9P0L2)
MAPK14 (human) = MAPK14 (human) (UniProt Q16539)
DYRK1A (human) = DYRK1A (human) (UniProt Q13627)
SRPK1 (human) = SRPK1 (human) (UniProt Q96SB4)
IGF1R (human) = IGF1R (human) (UniProt P08069)
Chain of IGF1R (human) (P08069 whole entry, looked up): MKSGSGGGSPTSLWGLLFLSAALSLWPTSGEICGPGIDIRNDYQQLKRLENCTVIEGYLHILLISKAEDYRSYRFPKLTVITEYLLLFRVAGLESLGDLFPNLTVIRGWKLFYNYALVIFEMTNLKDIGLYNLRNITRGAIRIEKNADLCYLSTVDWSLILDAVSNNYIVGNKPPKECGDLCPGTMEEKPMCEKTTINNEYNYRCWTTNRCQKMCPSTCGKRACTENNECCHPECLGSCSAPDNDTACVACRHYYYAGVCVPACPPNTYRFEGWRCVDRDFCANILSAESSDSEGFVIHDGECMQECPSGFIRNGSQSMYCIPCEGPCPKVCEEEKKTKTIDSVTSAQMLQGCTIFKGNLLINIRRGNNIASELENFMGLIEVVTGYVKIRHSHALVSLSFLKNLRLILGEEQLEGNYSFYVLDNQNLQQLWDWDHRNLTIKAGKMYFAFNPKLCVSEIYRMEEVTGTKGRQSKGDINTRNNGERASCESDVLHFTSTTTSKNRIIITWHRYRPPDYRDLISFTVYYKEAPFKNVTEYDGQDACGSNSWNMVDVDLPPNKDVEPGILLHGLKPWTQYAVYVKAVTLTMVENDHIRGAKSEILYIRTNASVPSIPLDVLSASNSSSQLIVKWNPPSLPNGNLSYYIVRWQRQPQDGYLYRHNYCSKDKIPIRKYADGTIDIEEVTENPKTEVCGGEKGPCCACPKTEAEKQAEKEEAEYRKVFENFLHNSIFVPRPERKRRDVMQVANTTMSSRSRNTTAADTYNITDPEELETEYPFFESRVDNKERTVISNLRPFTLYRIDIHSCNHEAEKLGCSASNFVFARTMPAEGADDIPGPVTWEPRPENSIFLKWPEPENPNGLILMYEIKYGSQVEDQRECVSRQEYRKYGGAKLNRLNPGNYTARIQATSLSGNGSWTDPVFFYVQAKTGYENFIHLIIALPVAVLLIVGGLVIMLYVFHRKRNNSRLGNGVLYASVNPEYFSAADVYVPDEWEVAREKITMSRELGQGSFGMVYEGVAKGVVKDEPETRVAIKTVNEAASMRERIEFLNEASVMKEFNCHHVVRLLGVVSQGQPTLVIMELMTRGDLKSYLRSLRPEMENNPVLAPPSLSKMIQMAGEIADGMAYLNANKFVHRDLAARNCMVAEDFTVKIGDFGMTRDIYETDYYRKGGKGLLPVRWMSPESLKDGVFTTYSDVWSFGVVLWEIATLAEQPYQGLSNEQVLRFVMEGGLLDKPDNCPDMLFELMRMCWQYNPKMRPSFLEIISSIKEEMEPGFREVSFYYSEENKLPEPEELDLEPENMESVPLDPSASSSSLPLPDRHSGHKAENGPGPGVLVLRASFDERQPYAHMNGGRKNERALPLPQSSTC

IKBKE (human) = IKBKE (human) (UniProt Q14164)
PKN2 (human) = PKN2 (human) (UniProt Q16513)
PIM3 (human) = PIM3 (human) (UniProt Q86V86)
[3] = tested on: AKT2 (human), P31751 [S474D]
Chain of AKT2 (human), P31751 [S474D] (P31751 whole entry S474D, looked up): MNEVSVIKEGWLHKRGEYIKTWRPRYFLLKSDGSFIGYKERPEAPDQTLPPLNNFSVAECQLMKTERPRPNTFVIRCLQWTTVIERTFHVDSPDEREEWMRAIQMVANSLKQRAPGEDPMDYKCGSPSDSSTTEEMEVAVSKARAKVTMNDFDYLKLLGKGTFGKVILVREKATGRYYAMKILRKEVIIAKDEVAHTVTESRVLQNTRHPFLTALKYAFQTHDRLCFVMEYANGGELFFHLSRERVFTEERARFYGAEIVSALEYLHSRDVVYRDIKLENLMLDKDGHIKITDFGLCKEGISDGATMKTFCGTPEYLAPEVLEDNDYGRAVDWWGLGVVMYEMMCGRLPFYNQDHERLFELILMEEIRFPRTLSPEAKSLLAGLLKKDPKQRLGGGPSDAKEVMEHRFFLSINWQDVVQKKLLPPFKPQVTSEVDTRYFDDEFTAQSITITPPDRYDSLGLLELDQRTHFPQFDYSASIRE

PAK4 (human) = PAK4 (human) (UniProt O96013)
PIM2 (human) = PIM2 (human) (UniProt Q9P1W9)
RIPK2 (human) = RIPK2 (human) (UniProt O43353)
MAPKAPK2 (human) = MAPKAPK2 (human) (UniProt P49137)
Chain of MAPKAPK2 (human) (P49137 whole entry, looked up): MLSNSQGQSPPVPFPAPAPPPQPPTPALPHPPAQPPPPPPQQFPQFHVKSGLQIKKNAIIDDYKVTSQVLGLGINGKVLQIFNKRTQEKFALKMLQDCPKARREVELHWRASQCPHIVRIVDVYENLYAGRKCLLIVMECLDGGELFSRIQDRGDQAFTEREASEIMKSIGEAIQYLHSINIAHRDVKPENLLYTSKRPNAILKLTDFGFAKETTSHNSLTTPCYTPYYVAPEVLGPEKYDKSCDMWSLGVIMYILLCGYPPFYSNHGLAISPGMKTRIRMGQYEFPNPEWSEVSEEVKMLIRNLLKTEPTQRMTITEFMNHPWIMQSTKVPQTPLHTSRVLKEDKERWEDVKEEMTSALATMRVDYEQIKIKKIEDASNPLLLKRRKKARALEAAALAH

NEK2 (human) = NEK2 (human) (UniProt P51955)
Chain of NEK2 (human) (P51955 whole entry, looked up): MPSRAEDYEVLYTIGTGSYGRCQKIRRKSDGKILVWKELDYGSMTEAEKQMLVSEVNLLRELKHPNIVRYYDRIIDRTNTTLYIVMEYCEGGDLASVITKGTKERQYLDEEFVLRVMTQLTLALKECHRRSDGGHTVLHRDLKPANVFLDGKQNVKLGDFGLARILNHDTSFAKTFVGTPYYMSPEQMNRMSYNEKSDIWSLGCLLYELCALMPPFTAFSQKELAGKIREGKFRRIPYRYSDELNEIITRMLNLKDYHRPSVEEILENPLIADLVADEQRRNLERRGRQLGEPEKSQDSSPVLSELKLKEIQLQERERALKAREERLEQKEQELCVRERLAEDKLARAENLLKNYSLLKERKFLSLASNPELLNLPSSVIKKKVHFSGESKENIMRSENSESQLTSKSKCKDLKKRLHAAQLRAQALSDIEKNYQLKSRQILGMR

Chain of EPHA4 (human) (P54764 whole entry, looked up): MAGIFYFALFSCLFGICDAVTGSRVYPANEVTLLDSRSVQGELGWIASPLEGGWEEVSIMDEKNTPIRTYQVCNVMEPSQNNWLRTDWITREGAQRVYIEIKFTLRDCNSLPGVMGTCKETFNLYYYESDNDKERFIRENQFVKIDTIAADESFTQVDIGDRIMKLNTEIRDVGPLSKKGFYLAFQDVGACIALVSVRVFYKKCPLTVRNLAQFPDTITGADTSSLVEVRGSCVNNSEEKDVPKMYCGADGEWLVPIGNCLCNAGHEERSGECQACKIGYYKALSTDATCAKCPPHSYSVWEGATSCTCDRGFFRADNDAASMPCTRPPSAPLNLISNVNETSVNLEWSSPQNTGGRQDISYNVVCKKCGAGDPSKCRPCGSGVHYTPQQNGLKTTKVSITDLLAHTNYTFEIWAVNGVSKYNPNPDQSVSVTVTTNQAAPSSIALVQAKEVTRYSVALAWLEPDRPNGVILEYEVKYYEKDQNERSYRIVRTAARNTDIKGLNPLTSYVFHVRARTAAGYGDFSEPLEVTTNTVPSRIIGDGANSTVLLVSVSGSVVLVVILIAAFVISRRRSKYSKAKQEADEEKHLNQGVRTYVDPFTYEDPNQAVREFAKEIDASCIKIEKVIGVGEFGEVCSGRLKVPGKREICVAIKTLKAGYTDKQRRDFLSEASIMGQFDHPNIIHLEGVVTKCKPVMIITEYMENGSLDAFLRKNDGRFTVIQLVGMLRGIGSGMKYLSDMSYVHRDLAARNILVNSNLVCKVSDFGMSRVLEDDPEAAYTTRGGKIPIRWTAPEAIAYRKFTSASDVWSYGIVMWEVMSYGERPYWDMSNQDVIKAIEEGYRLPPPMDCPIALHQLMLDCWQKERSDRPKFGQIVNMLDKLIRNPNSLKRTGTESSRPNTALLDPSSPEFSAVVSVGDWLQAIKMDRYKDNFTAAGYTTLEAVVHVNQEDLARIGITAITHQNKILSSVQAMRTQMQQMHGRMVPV

SMILES: FC(F)(F)c1ccc(-c2ccc(Oc3cncc4sc(-c5nn[nH]n5)cc34)cc2)cc1
- residual activity (HIPK3 (human); compound 1.0 µM): 63%
- residual activity (HIPK3 (human); compound 10.0 µM): 10%
- residual activity (EPHA4 (human); compound 1.0 µM): 109%
- residual activity (EPHA4 (human); compound 10.0 µM): 106%
- residual activity (PLK1 (human); compound 1.0 µM): 83%
- residual activity (PLK1 (human); compound 10.0 µM): 16%
- residual activity (CHEK1 (human); compound 1.0 µM): 118%
- residual activity (CHEK1 (human); compound 10.0 µM): 65%
- residual activity (NEK6 (human); compound 1.0 µM): 93%
- residual activity (NEK6 (human); compound 10.0 µM): 83%
- residual activity (MAPK12 (human); compound 1.0 µM): 91%
- residual activity (MAPK12 (human); compound 10.0 µM): 73%
- residual activity (MARK2 (human); compound 1.0 µM): 83%
- residual activity (MARK2 (human); compound 10.0 µM): 84%
- residual activity (MST4 (human); compound 1.0 µM): 118%
- residual activity (MST4 (human); compound 10.0 µM): 71%
- residual activity (CLK2 (human); compound 1.0 µM): 73%
- residual activity (CLK2 (human); compound 10.0 µM): 14%
- residual activity (RPS6KA3 KD1 KD2 (human); compound 1.0 µM): 132%
- residual activity (RPS6KA3 KD1 KD2 (human); compound 10.0 µM): 88%
- residual activity (PAK6 (human); compound 1.0 µM): 121%
- residual activity (PAK6 (human); compound 10.0 µM): 110%
- residual activity ([1]; compound 1.0 µM): 93%
- residual activity ([1]; compound 10.0 µM): 39%
- residual activity (PAK7 (human); compound 1.0 µM): 103%
- residual activity (PAK7 (human); compound 10.0 µM): 94%
- residual activity (MAPK3 (human); compound 1.0 µM): 101%
- residual activity (MAPK3 (human); compound 10.0 µM): 82%
- residual activity (CSNK1D (human); compound 1.0 µM): 86%
- residual activity (CSNK1D (human); compound 10.0 µM): 41%
- residual activity (MAP3K7 TAB1 (human); compound 1.0 µM): 104%
- residual activity (MAP3K7 TAB1 (human); compound 10.0 µM): 67%
- residual activity (MAPK15 (human); compound 1.0 µM): 34%
- residual activity (MAPK15 (human); compound 10.0 µM): 4%
- residual activity (IRAK4 (human); compound 1.0 µM): 90%
- residual activity (IRAK4 (human); compound 10.0 µM): 88%
- residual activity (CAMKK2 (human); compound 1.0 µM): 105%
- residual activity (CAMKK2 (human); compound 10.0 µM): 44%
- residual activity ([2]; compound 1.0 µM): 109%
- residual activity ([2]; compound 10.0 µM): 101%
- residual activity (RPS6KA5 KD1 KD2 (human); compound 1.0 µM): 90%
- residual activity (RPS6KA5 KD1 KD2 (human); compound 10.0 µM): 22%
- residual activity (MARK1 (human); compound 1.0 µM): 99%
- residual activity (MARK1 (human); compound 10.0 µM): 72%
- residual activity (MAPK14 (human); compound 1.0 µM): 102%
- residual activity (MAPK14 (human); compound 10.0 µM): 107%
- residual activity (DYRK1A (human); compound 1.0 µM): 27%
- residual activity (DYRK1A (human); compound 10.0 µM): 5%
- residual activity (SRPK1 (human); compound 1.0 µM): 112%
- residual activity (SRPK1 (human); compound 10.0 µM): 105%
- residual activity (IGF1R (human); compound 1.0 µM): 74%
- residual activity (IGF1R (human); compound 10.0 µM): 74%
- residual activity (IKBKE (human); compound 1.0 µM): 109%
- residual activity (IKBKE (human); compound 10.0 µM): 60%
- residual activity (PKN2 (human); compound 1.0 µM): 98%
- residual activity (PKN2 (human); compound 10.0 µM): 54%
- residual activity (PIM3 (human); compound 1.0 µM): 74%
- residual activity (PIM3 (human); compound 10.0 µM): 31%
- residual activity ([3]; compound 1.0 µM): 106%
- residual activity ([3]; compound 10.0 µM): 98%
- residual activity (PAK4 (human); compound 1.0 µM): 121%
- residual activity (PAK4 (human); compound 10.0 µM): 97%
- residual activity (PIM2 (human); compound 1.0 µM): 87%
- residual activity (PIM2 (human); compound 10.0 µM): 36%
- residual activity (RIPK2 (human); compound 1.0 µM): 83%
- residual activity (RIPK2 (human); compound 10.0 µM): 30%
- residual activity (MAPKAPK2 (human); compound 1.0 µM): 97%
- residual activity (MAPKAPK2 (human); compound 10.0 µM): 94%
- residual activity (NEK2 (human); compound 1.0 µM): 108%
- residual activity (NEK2 (human); compound 10.0 µM): 113%

— the kinase profiling compilation of Christmann-Franck et al. (2016)
